The record followed here is patent US8263642B2, “Antimicrobial compounds and methods of use thereof” (Vanderbilt University, priority 2008, dated 2012).

Test [1] deals with HssRS-dependent hrtAB expression. The test can be described thus: Luminescence-based assay to monitor HssRS-dependent hrtAB expression (phrtABlux reporter), Newman. Format: cell-based, Staphylococcus aureus. Conditions: Newman; for activation at 0.0825 µM: Staphylococcus aureus, NEWMAN, read-out: % Lumi, luminescence induced by the compound compared to the heme control (82.5 nM) in the same plate; for Luminescence: raw luminescence value obtained in a luminometer. As for the experimental part: (§1) With reference to Table 1, “Luminescence” refers to the raw luminescence value obtained in a luminomter. “Control (82.5 nm)” refers to the luminescence value obtained from heme at 82.5 nM as a positive control in the same plate as the experimental. “% lum” is the percentage of luminescence induced by the compound as compared to the heme control in the same plate. […] All of these assays are described in the application. […] “N/T” indicates the test was not performed.
A hrtAB-driven expression system was created in the pXen vector system (Xenogen) (Francis, K. P., D. Joh, C. Bellinger-Kawahara, M. J. Hawkinson, T. F. Purchio, and P. R. Contag. 2000. Monitoring bioluminescent Staphylococcus aureus infections in living mice using a novel luxABCDE construct. Infect Immun 68:3594-3600). This vector contains a promoterless luxCDABE operon from Photorabdus luminescens which produces blue green light when expressed. The luxCDABE encodes for a fatty acid reductase (LuxCDE) that produces a long chain fatty aldehyde which, when combined with cellular flavin mononucleotide, is oxidized by a luciferase (LuxAB) to produce light. Therefore, this system is useful in that it bypasses the need for substrate addition and is capable of generating light in the absence of any added reagents. Furthermore, the luminescent signal produced by the combined activities of LuxAB and LuxCDE is of sufficient intensity to be visualized in unmanipulated intact bacteria.
To establish an assay that measures HssRS-dependent expression of luxCDABE, the promoter for hrtAB upstream of luxCDABE was cloned and transformed this vector (phrtABlux) into wildtype and ΔhssR S. aureus. A promoterless vector (plux) and a plasmid containing luxCDABE under the control of a constitutive promoter (psrtAlux) (Mazmanian, S. K., G. Liu, H. Ton-That, and O. Schneewind. 1999. “Staphylococcus aureus sortase, an enzyme that anchors surface proteins to the cell wall.” Science 285:760-763) were included as negative and positive controls, respectively. Initially, wildtype S. aureus harboring either plux, phrtABlux, or psrtAlux were plated on solid medium that either lacked heme or contained 4 μM heme. Only wildtype S. aureus containing psrtAlux produced light on solid media regardless of the presence or absence of heme. […] Light was not produced by bacteria containing plux in either condition.
To adapt this system for a HTS to measure ligand recognition by HssRS, luminescence of wildtype and ΔhssR harboring the above listed plasmids in liquid media with or without heme was measured. […] Taken together, these experiments establish a whole cell […] assay that can identify small molecule modifiers of HssRS. This screen, in some aspects, can identify molecules that can be used as molecular probes in structure-function analyses to determine the mechanism by which S. aureus sense host heme.
Upon staphylococcal exposure to heme, HssRS senses heme and activates expression of hrtAB. This process can be measured using a reporter assay that employs a vector encoding the light-producing luxCDABE operon under the control of the hrtAB promoter. This assay results in whole cell luminescence upon HssRS-dependent activation of hrtAB, forming the foundation for the development of an assay suitable for high-throughput screens for small molecule activators of HssRS.
To develop an automated HTS format, S. aureus wildtype and ΔhssR harboring reporter constructs (psrtAlux, phrtAlux, plux) can be grown for 15 hours at 37° C. in tryptic soy broth (TSB) containing 10 μg/ml chloramphenicol. The addition of chloramphenicol is useful to ensure that the staphylococci propagate the reporter plasmid upon cell division. Following growth, bacterial cultures can be normalized and 2×10^7 cells (approximately 2 μl) can be added to individual wells of black walled, clear bottomed, 96-well plates. […]

For test [2], the system named is hrtAB-driven expression of the xylE reporter gene. In words: XylE reporter assay (hrtAB promoter-xylE), Newman. Format: cell-based, Staphylococcus aureus. The note with it: for XylE (0.05): level of XylE induction at 0.05 uM of the compound; for XylE (0.5): level of XylE induction at 0.5 uM of the compound; for XylE (5.0): level of XylE induction at 5.0 uM of the compound; for XylE (50.0): level of XylE induction at 50.0 uM of the compound. As for the experimental part:
as §1
Compounds that activate HssRS-driven hrtAB expression in the luciferase-based screen can be subjected to two separate counter screens to confirm these compounds as active hits. First, compounds of interest can be tested for their ability to activate expression of hrtAB in the XylE expression assay described hereinbelow. This is an in vitro assay that measures hrtAB-driven expression of the xylE reporter gene. The XylE-based reporter assay utilizes slightly more manipulations than the primary luciferase-based screen. […] It should be appreciated that a shortcoming of this counter screen is that it measures reporter gene expression, which is a similar activity as that measured in the primary assay. To address this shortcoming, compounds that are positive in both XylE- and luciferase-based assays can be subjected to a second counter screen as described hereinbelow.
S. aureus strains harboring the appropriate reporter construct were inoculated into 500 μl of TSB containing 10 μg/ml chloramphenicol in 1.5 ml tubes. Cultures were grown O/N at 37° C. with shaking. Bacteria were pelleted by centrifugation and spent medium was aspirated. The pellet was washed once with 500 μl of 20 mM potassium phosphate, pH 7.6, and resuspended in 150 μl of 100 mM potassium phosphate buffer, pH 8.0, 10% (v/v) acetone, 25 μg/ml lysostaphin. After 20 minute incubation at 37° C. and 5 minute incubation on ice, samples were centrifuged at 20,000 g for 30 minutes at 4° C. 1-10 μl of supernatant was added to a 96-well plate and 200 μl of 100 mM potassium phosphate, pH 8.0, 0.2 mM pyrocatechol was added to each well. Formation of 2-hydroxymuconic semialdehyde was tracked by measuring the absorbance at 375 nm every minute for 30 minutes on a Varian MP 50 microplate reader. Protein concentration in samples was determined by BCA (Pierce). One unit of specific activity of XylE in a sample is defined as the formation of 1 nmol of 2-hydroxymuconic semialdehyde per minute per milligram of cellular protein at 30° C. (Chien, Y., Manna, A. C., Projan, S. J., and Cheung, A. L. 1999, “SarA, a global regulator of virulence determinants in Staphylococcus aureus, binds to a conserved motif essential for sar-dependent gene regulation. J. Biol. Chem. 274, 37169-37176).
The hrtAB intergenic region was fused to the xylE structural gene by PCR-SOE. In the first reaction, primer P1B:[…] and P2B:[…] were used to amplify the hrtAB intergenic region from S. aureus strain Newman genomic DNA. In the second PCR reaction primers P3B:[…] and P4B:[…] were used to amplify the xylE structural gene using pALC1639 template DNA (provided by Dr. Ambrose Cheung) and PCR product purified using a Qiagen gel extraction kit. For the PCRSOE reaction, a 1:300 dilution of purified reaction 1 and reaction 2 PCR products was mixed and amplified by PCR using […]. This yielded a construct in which the hrtAB intergenic region is fused to the xylE gene in such a manner that the position of the start codon for xylE corresponds to the position of the start codon for […] in the hrtAB locus. The hrtAB promoter-xylE fusion DNA was then subcloned into pOS1. As a control we also constructed a promoterless xylE vector. The xylE gene was amplified from pACL1639 template DNA using the primers P1C:[…] and P2C:[…] and then cloned into the pOS1 vector.
On the technique in general: In a reporter assay the amount or activity of a reporter protein is the signal.

Turning to `C=CCc1ccccc1Oc1ccc(C(F)(F)F)cn1`, in test [1], the activation at 0.0825 µM was 27.5% and the Luminescence was found to be 1474. In test [2], the “XylE (0.05)” value amounted to 0.08, the “XylE (0.5)” value came to 0.02, the “XylE (5.0)” value came out at 0.07 and the “XylE (50.0)” value is on record as 0.09.

Regarding `Cc1cc(C)c(S(=O)(=O)Nc2ccc(O)c(-c3c(O)ccc4ccccc34)c2)cc1C`, in test [1], the activation at 0.0825 µM came to 354% and the Luminescence came out at 1574. Also, in test [2], the “XylE (0.5)” value stood at 0.03, the “XylE (5.0)” value is given as 0.06 and the “XylE (50.0)” value turned out to be 0.05.

As for `COc1cc(OC)cc(C(=O)Nc2ccc(-c3nc4cc(C)ccc4o3)cc2)c1`, in test [1], the activation at 0.0825 µM came to 345% and the Luminescence came out at 1765. In test [2], the “XylE (0.5)” value was 0.1, the “XylE (5.0)” value worked out at 0.6 and the “XylE (50.0)” value was found to be 0.

In the case of `COc1ccc(/N=c2\nc(-c3ccccc3)n(-c3ccc(C)cc3)s2)cc1`, in test [1], the activation at 0.0825 µM was 266% and the Luminescence stood at 757. In addition, in test [2], the “XylE (0.05)” value was found to be 0.02, the “XylE (0.5)” value came to 0.04, the “XylE (5.0)” value is reported as 0 and the “XylE (50.0)” value was 0.

Consider `c1cc(-c2ccc3nsnc3c2)c2cc3nsnc3cc2c1`, for which, in test [1], the activation at 0.0825 µM worked out at 347% and the Luminescence was found to be 1630. In test [2], the “XylE (0.5)” value amounted to 0.06, the “XylE (5.0)” value was found to be 0 and the “XylE (50.0)” value was found to be 0.9.

On to `CCc1ccc2oc(-c3ccc(NC(=O)c4ccccc4OC)cc3)nc2c1`, for which, in test [1], the Luminescence is 2392. In test [2], the “XylE (0.5)” value came out at 0.05, the “XylE (5.0)” value is 2 and the “XylE (50.0)” value turned out to be 3.

Take `CCCCCCC(=O)NC(NC(=S)Nc1ccccc1O)C(Cl)(Cl)Cl` (centres unmarked): the Luminescence in test [1] turned out to be 2766. Further, in test [2], the “XylE (0.05)” value was 0.5, the “XylE (0.5)” value came to 0.2, the “XylE (5.0)” value was determined as 0.04 and the “XylE (50.0)” value was 0.03.

On to `C/C=C/C=N/Nc1nnc2c(n1)[nH]c1ccccc12`, for which, in test [1], the activation at 0.0825 µM was found to be 202% and the Luminescence is 1696. Moreover, in test [2], the “XylE (0.05)” value amounted to 0.04, the “XylE (0.5)” value is given as 0.06, the “XylE (5.0)” value was 0.1 and the “XylE (50.0)” value stood at 1.

In the case of `O=C(Nc1ccccc1O)c1cccc(N2C(=O)c3ccc([N+](=O)[O-])cc3C2=O)c1`, in test [1], the activation at 0.0825 µM was 675% and the Luminescence is 1850. In test [2], the “XylE (0.5)” value is 0.02, the “XylE (5.0)” value is recorded as 0 and the “XylE (50.0)” value was 0.03.

Take `Oc1ccc(Nc2nc(-c3ccc(Cl)cc3)nc3ccccc23)cc1`: in test [1], the Luminescence stood at 3096. In test [2], the “XylE (0.05)” value was determined as 1, the “XylE (0.5)” value turned out to be 1, the “XylE (5.0)” value was found to be 1 and the “XylE (50.0)” value was determined as 1.

For `Cc1cc(-c2ccc(N)cc2)nc2ccc3ccccc3c12`, in test [1], the activation at 0.0825 µM stood at 136% and the Luminescence is reported as 576. Besides, in test [2], the “XylE (0.05)” value was determined as 0.09, the “XylE (0.5)” value is listed as 0.06, the “XylE (5.0)” value is recorded as 0.02 and the “XylE (50.0)” value came to 0.04.

As for `Cc1ccc2c(c1)C(c1ccccc1)=NNC(c1ccccc1)=N2`, the Luminescence in test [1] is on record as 2763. Further, in test [2], the “XylE (0.5)” value is 0, the “XylE (5.0)” value is on record as 0.2 and the “XylE (50.0)” value is reported as 0.4.

Take `CC(C)(C)c1cc2c(c(C(C)(C)C)c1)OC(c1cc([N+](=O)[O-])ccc1O)N2` (centres unmarked): in test [1], the Luminescence was found to be 1805. Further, in test [2], the “XylE (0.5)” value came out at 0.04, the “XylE (5.0)” value was determined as 0 and the “XylE (50.0)” value came out at 0.04.

With `COc1ccc(/C=C/c2nc3ccccc3c(=O)n2-c2cccc(C(=O)O)c2)cc1`, in test [1], the activation at 0.0825 µM was found to be 705% and the Luminescence was 1995. In addition, in test [2], the “XylE (0.5)” value is 0.04, the “XylE (5.0)” value worked out at 0.08 and the “XylE (50.0)” value is on record as 0.05.

As to `CCc1ccccc1NC(=O)C1CCCCC1C(=O)O` (centres unmarked), in test [1], the activation at 0.0825 µM stood at 136% and the Luminescence stood at 576. In addition, in test [2], the “XylE (0.05)” value was 1, the “XylE (0.5)” value is reported as 0.05, the “XylE (5.0)” value is listed as 0.02 and the “XylE (50.0)” value is given as 1.

As to `O=C(Nc1ccccc1C(=O)Nc1ccc(Cl)cc1)c1ccccc1`, in test [1], the activation at 0.0825 µM was found to be 92% and the Luminescence worked out at 309. Further, in test [2], the “XylE (0.05)” value is listed as 0.05, the “XylE (0.5)” value came to 0.08, the “XylE (5.0)” value is on record as 0.08 and the “XylE (50.0)” value is listed as 0.06.

As for `COc1ccc(C2CC(C3C(=O)c4ccccc4C3=O)=NN2)cc1` (centres unmarked), the Luminescence in test [1] is recorded as 1888. In test [2], the “XylE (0.5)” value stood at 0.08, the “XylE (5.0)” value stood at 5 and the “XylE (50.0)” value is listed as 0.09.

As for `CCC(C)NC(=O)c1sc2nc(C)nc(N3CCCCC3)c2c1C` (centres unmarked), the Luminescence in test [1] is listed as 2301. For the same molecule, in test [2], the “XylE (0.05)” value came to 1, the “XylE (0.5)” value turned out to be 1, the “XylE (5.0)” value turned out to be 1 and the “XylE (50.0)” value came out at 7.
